According to patent US20210228562A1, “IRAK DEGRADERS AND USES THEREOF” (Kymera Therapeutics, Inc., priority 2019, published 2021):

What was measured:
Format in all cases: cell-based
[1] = molecular target: T1, Aiolos (protein product of gene IKZF3) (Homo sapiens, UniProt Q96SW2+Q9UKT9); assay: Quantification of Aiolos degradation in OCI-LY10 cells (quantitative immunoblotting); details: 6 h treatment
T1 construct: endogenous in cells; host or cells: OCI-LY10
Description: (§1) Degradation of Ikaros (protein product of gene IKZF1) and Aiolos (protein product of gene IKZF3) were determined by quantitative immunoblotting as follows. OCI-LY10 cells, 2×10^6 cells/well, were treated with listed concentrations of IRAK4 degraders or control compounds in 6 well plates for 6 h. Cells were collected, washed with cold PBS, lysed in RIPA buffer (Boston BioProducts BP-115D) with protease/phosphatase inhibitor cocktail (Roche 05892791001/Roche 04906837001) and centrifuged at 13000 RPM for 20 min to precipitate insoluble material. The supernatant fraction was diluted in SDS-PAGE loading buffer (Beyotime Bio P0015) and 20 μL of each sample was resolved on 4-12% Bis-Tris SDS-PAGE gels (Novex, WG1402BOX). Resolved samples were transferred to nitrocellulose membranes by wet electro-transfer method at 250 mV for 1.5 h. The membrane was blocked with LICOR blocking buffer (LI-COR, 927-50000) for 1 hour, washed three times with TBST (CST #99975) for 5 minutes each and incubated with primary antibody prepared in block buffer with 0.1% Tween-20 (Solarbio, P8220) at 4° C. overnight. Ikaros antibody was rabbit monoclonal D6N9Y (CST #14859), at 1:1000 dilution. Aiolos antibody was rabbit monoclonal D1C1E (CST #15103), at 1:1000 dilution. Signal was normalized to mouse anti-beta-Actin monoclonal 8H10D10 (CST #3700) used at 1:10,000 dilution. After incubation in primary antibodies, membranes were washed three times with TBST, 5 minutes each, incubated with fluorescently labeled secondary antibodies anti-rabbit IgG (Licor, 926-32211) at 1:5000 dilution; anti-mouse IgG (LI-COR, 926-68070) at 1:5000 dilution, for 1 hour at RT. After incubation in secondary, membranes were washed three times with TBST, 5 minutes each and read on LICOR Odyssey imager. Data was reported as signal for Ikaros or Aiolos relative to signal for actin, and normalized to DMSO-treated control.

OCI-LY10 cells = assay: CTG Cell Viability Assay - OCI-LY10; details: Homo sapiens, 96 h, CellTiter-Glo, 4 days incubation
Description: Compound-mediated viability effect on OCI-LY10 or SUDHL-2 was quantitatively determined using the CellTiter-Glo® Luminescent Cell Viability Assay kit from Promega (Catalog number G7570) following manufacturer's recommended procedures. Briefly, OCI-LY10 or SUDHL-2 cells were seeded into 384 well plates (Grenier Bio-One, Catalog number 781080) with a density of 10,000 cells per well. Compounds were then added to the assay plate with final top concentration of 10 μM and 1:3 dilution series with total of 9 doses. The final DMSO concentration was normalized to 0.2%. The assay plates were incubated at 37° C. for 4 days under 5% CO2. Then the assay plate was equilibrated at room temperature for 10 minutes. To determine cell viability, 30 μL CellTiter Glo reagent was added to each well and the assay plate was centrifuged at 1000 rpm for 30 second, incubated at room temperature for 10 min, and analyzed by detecting the luminescence using a multimode plate reader (EnVision 2105, PerkinElmer). The data was then analyzed by software Prism 7.0 from GraphPad and the dose response curves were fit using a three-parameter logistic equation to calculate IC50.

[2] = molecular target: T2, Ikaros (protein product of gene IKZF1) (Homo sapiens, UniProt Q13422+Q96SW2); assay: Quantification of Ikaros degradation in OCI-LY10 cells (quantitative immunoblotting); details: 6 h treatment
T2 construct: endogenous in cells; host or cells: OCI-LY10
Description: as §1

IRAK4 = molecular target: T3, IRAK4 (Homo sapiens, UniProt Q9NWZ3); assay: IRAK4 MSD Degradation in OCI-LY10; details: OCI-LY10 cells, 24 hrs incubation; read-out: IRAK4 degradation in OCI-LY10 at 24 hrs: DC50
T3 construct: endogenous in cells; host or cells: OCI-LY10
T3 sequence (Q9NWZ3 1-460): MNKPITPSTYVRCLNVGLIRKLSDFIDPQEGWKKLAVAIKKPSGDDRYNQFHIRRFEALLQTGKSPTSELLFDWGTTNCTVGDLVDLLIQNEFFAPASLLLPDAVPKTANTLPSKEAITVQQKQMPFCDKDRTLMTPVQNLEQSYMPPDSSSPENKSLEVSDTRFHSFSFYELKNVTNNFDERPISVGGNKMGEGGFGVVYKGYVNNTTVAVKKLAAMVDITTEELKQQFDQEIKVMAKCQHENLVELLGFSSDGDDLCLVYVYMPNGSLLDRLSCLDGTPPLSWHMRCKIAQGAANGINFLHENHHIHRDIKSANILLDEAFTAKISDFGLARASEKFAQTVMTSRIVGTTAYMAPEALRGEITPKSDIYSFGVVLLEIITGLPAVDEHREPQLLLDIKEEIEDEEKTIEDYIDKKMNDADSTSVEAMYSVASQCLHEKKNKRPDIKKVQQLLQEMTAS
Description: Degradation of IRAK4 in OCI-LY10 was quantitatively measured using Meso Scale Discovery technology. OCI-LY10 cells were seeded in 96-well plates (Corning 3799) with a density of 300,000 cells per well in 100 μL fresh media. Compounds were then added to the assay plates with a final top concentration of 1 to 10 μM in a 1:3 dilution series with total of 8 doses. The assay plates were then incubated for 4 to 24 hours at 37° C. under 5% CO2. The assay plates were then centrifuged for 5 minutes and the cell pellets were treated with 100 μL/well RIPA lysis buffer (Boston BioProducts BP-115D) with proteinase inhibitors. To prepare MSD assay plates (Meso Scale Discovery Catalog number L15XA-3), the plates were coated with 2 μg/mL capture antibody (mouse Anti-IRAK4 antibody [2H9], ab119942) in PBS, at 40 μL/well. The plates were then incubated overnight at 4° C., washed 3 times with 150 μL/well TBST buffer (Cell Signaling Technology, Catalog number 9997S) and blocked with 150 μL/well blocking buffer (Meso Scale Discovery Catalog number R93BA-4). Cell lysates were then added to MSD assay plates and the plates were incubated at room temperature for 1 hour. The plates were then washed 3 times with 150 μL/well TBST buffer and 25 μL/well primary detection antibody (rabbit Anti-IRAK4 antibody [Y279], from Abcam. Catalog number ab32511, 1 μg/mL). The assay plates were then incubated at room temperature for 1 hour, washed 3 times with 150 μL/well TBST buffer and 25 μL/well secondary detection antibody, SULFO-TAG anti-rabbit antibody were added (anti rabbit antibody from Meso Scale Discovery, Catalog number R32AB-1, 1 μg/mL). The assay plates were then incubated at room temperature for 1 hour, washed 3 times with 150 μL/well TBST buffer, and 150 μL/well MSD reading buffer (Meso Scale Discovery catalog number R92TC-2) was added. The plates were then analyzed by a MSD reader (Meso Scale Discovery, Model Quick Plex SQ 120). The data was then analyzed by software Prism 7.0 from GraphPad and the dose-depended IRAK4 degradation were fit using a three-parameter logistic equation to calculate DC50.

T1 sequence (Q9UKT9 whole entry): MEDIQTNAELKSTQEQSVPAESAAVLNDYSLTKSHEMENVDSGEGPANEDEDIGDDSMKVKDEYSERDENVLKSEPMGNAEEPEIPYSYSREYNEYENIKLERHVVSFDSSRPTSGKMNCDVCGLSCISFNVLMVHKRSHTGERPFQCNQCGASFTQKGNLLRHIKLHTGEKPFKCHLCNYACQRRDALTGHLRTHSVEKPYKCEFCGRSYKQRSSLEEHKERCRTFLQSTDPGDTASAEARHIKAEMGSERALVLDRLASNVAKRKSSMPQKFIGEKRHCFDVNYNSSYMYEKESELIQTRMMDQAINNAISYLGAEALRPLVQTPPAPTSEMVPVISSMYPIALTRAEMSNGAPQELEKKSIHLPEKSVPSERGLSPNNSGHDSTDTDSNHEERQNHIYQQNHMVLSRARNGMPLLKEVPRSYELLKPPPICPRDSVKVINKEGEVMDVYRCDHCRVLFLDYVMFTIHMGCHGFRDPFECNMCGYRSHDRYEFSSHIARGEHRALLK
T1 sequence (Q96SW2 whole entry): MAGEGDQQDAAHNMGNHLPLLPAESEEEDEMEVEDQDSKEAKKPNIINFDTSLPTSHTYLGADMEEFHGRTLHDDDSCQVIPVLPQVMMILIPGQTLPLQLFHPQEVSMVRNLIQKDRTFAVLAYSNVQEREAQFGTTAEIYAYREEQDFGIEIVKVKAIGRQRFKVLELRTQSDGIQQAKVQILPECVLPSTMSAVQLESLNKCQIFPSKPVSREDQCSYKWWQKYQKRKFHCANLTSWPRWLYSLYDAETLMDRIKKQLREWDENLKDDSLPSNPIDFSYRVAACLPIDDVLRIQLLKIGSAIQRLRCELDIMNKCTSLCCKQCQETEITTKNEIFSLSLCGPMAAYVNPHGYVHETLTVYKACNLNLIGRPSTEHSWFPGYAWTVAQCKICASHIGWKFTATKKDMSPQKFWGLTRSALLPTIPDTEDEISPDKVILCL
T1 sequence (Q16531 whole entry partner): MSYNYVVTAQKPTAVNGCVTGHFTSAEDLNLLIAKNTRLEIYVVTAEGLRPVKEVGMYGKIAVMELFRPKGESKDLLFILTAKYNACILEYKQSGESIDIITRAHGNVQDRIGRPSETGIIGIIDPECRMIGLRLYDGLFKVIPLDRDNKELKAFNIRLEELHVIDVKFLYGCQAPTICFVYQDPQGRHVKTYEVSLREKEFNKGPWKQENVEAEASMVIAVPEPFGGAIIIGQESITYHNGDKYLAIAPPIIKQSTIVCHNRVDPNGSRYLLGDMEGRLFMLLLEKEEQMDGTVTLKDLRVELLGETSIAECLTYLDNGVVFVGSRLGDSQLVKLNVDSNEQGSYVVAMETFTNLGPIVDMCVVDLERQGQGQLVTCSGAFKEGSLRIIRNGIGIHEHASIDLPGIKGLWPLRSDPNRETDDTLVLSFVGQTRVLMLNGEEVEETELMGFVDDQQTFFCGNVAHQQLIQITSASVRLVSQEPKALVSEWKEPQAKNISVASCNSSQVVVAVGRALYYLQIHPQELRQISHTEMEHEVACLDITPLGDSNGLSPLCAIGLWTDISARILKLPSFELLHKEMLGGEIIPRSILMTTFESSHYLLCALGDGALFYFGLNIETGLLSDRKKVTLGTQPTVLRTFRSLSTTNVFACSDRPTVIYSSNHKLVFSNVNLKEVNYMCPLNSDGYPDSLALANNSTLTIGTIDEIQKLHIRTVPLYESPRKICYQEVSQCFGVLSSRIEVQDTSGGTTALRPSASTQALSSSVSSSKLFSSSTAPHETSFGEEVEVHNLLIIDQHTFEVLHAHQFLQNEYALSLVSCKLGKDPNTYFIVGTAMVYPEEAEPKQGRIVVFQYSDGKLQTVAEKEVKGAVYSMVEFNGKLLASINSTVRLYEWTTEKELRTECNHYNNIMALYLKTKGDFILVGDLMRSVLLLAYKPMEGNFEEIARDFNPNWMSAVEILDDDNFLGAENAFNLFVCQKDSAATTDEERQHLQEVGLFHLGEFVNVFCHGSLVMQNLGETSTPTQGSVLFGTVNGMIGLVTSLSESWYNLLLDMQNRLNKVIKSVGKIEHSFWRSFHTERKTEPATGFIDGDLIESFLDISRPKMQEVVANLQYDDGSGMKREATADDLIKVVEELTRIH
T2 sequence (Q13422 whole entry): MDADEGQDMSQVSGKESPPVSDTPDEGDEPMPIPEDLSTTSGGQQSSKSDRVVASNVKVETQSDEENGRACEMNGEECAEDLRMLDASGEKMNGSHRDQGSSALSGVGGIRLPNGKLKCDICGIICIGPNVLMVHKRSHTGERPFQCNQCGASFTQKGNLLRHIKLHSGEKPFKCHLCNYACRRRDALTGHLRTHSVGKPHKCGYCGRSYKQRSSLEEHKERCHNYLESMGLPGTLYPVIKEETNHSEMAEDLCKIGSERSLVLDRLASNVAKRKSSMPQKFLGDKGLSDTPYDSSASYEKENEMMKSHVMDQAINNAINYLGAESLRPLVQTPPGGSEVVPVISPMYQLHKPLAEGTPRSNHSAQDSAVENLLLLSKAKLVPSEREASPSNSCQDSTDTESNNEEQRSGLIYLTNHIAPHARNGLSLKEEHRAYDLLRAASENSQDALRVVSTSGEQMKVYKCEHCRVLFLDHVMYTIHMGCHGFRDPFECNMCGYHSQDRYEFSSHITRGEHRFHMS
T2 sequence (Q96SW2 whole entry): as the sequence (Q96SW2 whole entry) above
T2 sequence (Q16531 whole entry partner): as the sequence (Q16531 whole entry partner) above

Row | DC50 [1] [nM] | IC50 (OCI-LY10 cells) [nM] | DC50 [2] [nM] | DC50 (IRAK4) [nM] | Compound
1 | < 50 | < 50 | < 50 | < 50 | CC(C)(O)c1cc2nc([C@H]3CC[C@H](N4CC5(CC(CCNc6cccc7c6C(=O)N(C6CCC(=O)NC6=O)C7=O)C5)C4)CC3)sc2cc1NC(=O)c1cccc(C(F)(F)F)n1 (single isomer, unassigned) [I-63]
2 | – | < 50 | – | – | CC(C)(O)c1cc2nc([C@H]3CC[C@@H](N4CC5(CC(CCNc6cccc7c6C(=O)N(C6CCC(=O)NC6=O)C7=O)C5)C4)CC3)sc2cc1NC(=O)c1cccc(C(F)(F)F)n1 (single isomer, unassigned) [I-64]
3 | < 50 | 100 to 500 | 50 to 100 | 50 to 100 | COc1cc2nc([C@H]3CC[C@H](CN4CCC5(CC4)CC(CCNc4cccc6c4C(=O)N(C4CCC(=O)NC4=O)C6=O)C5)CC3)sc2cc1NC(=O)c1cccc(C(C)(F)F)n1 (some centres unmarked) [I-19]
4 | 100 to 500 | < 50 | 100 to 500 | 50 to 100 | COc1cc2nc([C@H]3CC[C@H](CN4CC5(CCC(CNc6cccc7c6C(=O)N(C6CCC(=O)NC6=O)C7=O)CC5)C4)CC3)sc2cc1NC(=O)c1cccc(C(F)(F)F)n1 (some centres unmarked) [I-20]
5 | < 50 | 100 to 500 | 50 to 100 | 100 to 500 | COc1cc2nc([C@H]3CC[C@H](CN(C)[C@H]4CC[C@]5(CC4)C[C@@H](CNc4cccc6c4C(=O)N(C4CCC(=O)NC4=O)C6=O)C5)CC3)sc2cc1NC(=O)c1cccc(C(F)(F)F)n1 (some centres unmarked) [I-21]
6 | < 50 | < 50 | < 50 | 50 to 100 | Cc1cccc(C(=O)Nc2cc3sc([C@H]4CC[C@H](CN5CCC6(CC5)CC(CCNc5cccc7c5C(=O)N(C5CCC(=O)NC5=O)C7=O)C6)CC4)nc3cc2C(C)(C)O)n1 (some centres unmarked) [I-22]
7 | < 50 | 100 to 500 | 100 to 500 | < 50 | Cc1cccc(C(=O)Nc2cc3sc([C@H]4CC[C@H](CN(C)[C@H]5CC[C@H](Nc6cccc7c6C(=O)N(C6CCC(=O)NC6=O)C7=O)CC5)CC4)nc3cc2C(C)(C)O)n1 (some centres unmarked) [I-23]
8 | < 50 | < 50 | < 50 | < 50 | CC(C)(O)c1cc2nc([C@H]3CC[C@H](CN4CCC(CCNc5cccc6c5C(=O)N(C5CCC(=O)NC5=O)C6=O)CC4)CC3)sc2cc1NC(=O)c1cccc(C(F)(F)F)n1 (some centres unmarked) [I-24]
9 | < 50 | < 50 | < 50 | 50 to 100 | CN(C[C@H]1CC[C@H](c2nc3cc(C(C)(C)O)c(NC(=O)c4cccc(C(F)(F)F)n4)cc3s2)CC1)[C@H]1CC[C@]2(CC1)C[C@@H](CNc1cccc3c1C(=O)N(C1CCC(=O)NC1=O)C3=O)C2 (some centres unmarked) [I-25]
10 | < 50 | 50 to 100 | < 50 | < 50 | CC(C)(O)c1cc2nc([C@H]3CC[C@H](CN4CC5(CC(CNc6cccc7c6C(=O)N(C6CCC(=O)NC6=O)C7=O)C5)C4)CC3)sc2cc1NC(=O)c1cccc(C(F)(F)F)n1 (some centres unmarked) [I-26]
11 | < 50 | < 50 | < 50 | < 50 | CN(C[C@H]1CC[C@H](c2nc3cc(C(C)(C)O)c(NC(=O)c4cccc(C(F)(F)F)n4)cc3s2)CC1)[C@H]1CC[C@H](CCNc2cccc3c2C(=O)N(C2CCC(=O)NC2=O)C3=O)CC1 (some centres unmarked) [I-27]
12 | < 50 | 100 to 500 | 50 to 100 | < 50 | CN(C[C@H]1CC[C@H](c2nc3cc(C(C)(C)O)c(NC(=O)c4cccc(C(F)(F)F)n4)cc3s2)CC1)[C@H]1CC[C@H](Nc2cccc3c2C(=O)N(C2CCC(=O)NC2=O)C3=O)CC1 (some centres unmarked) [I-28]
13 | < 50 | < 50 | < 50 | < 50 | CC(C)(O)c1cc2nc([C@H]3CC[C@H](CN4CCC5(CC4)CC(CNc4cccc6c4C(=O)N(C4CCC(=O)NC4=O)C6=O)C5)CC3)sc2cc1NC(=O)c1cccc(C(F)(F)F)n1 (some centres unmarked) [I-29]
14 | < 50 | 50 to 100 | < 50 | < 50 | CC(C)(O)c1cc2nc([C@H]3CC[C@H](CN4CC5(CCC(CNc6cccc7c6C(=O)N(C6CCC(=O)NC6=O)C7=O)CC5)C4)CC3)sc2cc1NC(=O)c1cccc(C(F)(F)F)n1 (some centres unmarked) [I-30]
15 | – | < 50 | – | > 1000 | Cc1nccc(C(=O)Nc2cc3sc([C@H]4CC[C@H](CN5CC6(CC(CCNc7cccc8c7C(=O)N(C7CCC(=O)NC7=O)C8=O)C6)C5)CC4)nc3cc2C(C)(C)O)n1 (some centres unmarked) [I-51]
16 | – | < 50 | – | – | CC(C)(O)c1cc2nc([C@H]3CC[C@H](CN4CC5(CC(CCNc6cccc7c6C(=O)N(C6CCC(=O)NC6=O)C7=O)C5)C4)CC3)sc2cc1NC(=O)c1ccccn1 (some centres unmarked) [I-57]
17 | – | < 50 | – | – | CC(C)(O)c1cc2nc([C@H]3CC[C@H](CN4CC5(CC(CCNc6cccc7c6C(=O)N(C6CCC(=O)NC6=O)C7=O)C5)C4)CC3)sc2cc1NC(=O)c1cnccn1 (some centres unmarked) [I-58]
18 | – | < 50 | – | < 50 | CC(C)(O)c1cc2nc([C@H]3CC[C@H](CN4CC5(CC(CCNc6cccc7c6C(=O)N(C6CCC(=O)NC6=O)C7=O)C5)C4)CC3)sc2cc1N1CCc2ccccc2C1=O (some centres unmarked) [I-60]
19 | < 50 | – | < 50 | 50 to 100 | CC(C)(O)c1cc2nc([C@H]3CC[C@@H](CN4CC5(CC(CCNc6cccc7c6C(=O)N(C6CCC(=O)NC6=O)C7=O)C5)C4)CC3)sc2cc1NC(=O)c1cccc(C(F)(F)F)n1 (stereo partly drawn) [I-62, N-(2-((1S,4S)-4-((6-(2-((2-(2,6-dioxopiperidin-3-yl)-1,3-dioxoisoindolin-4-yl)amino)ethyl)-2-azaspiro[3.3]heptan-2-yl)methyl)cyclohexyl)-5-(2-hydroxypropan-2-yl)benzo[d]thiazol-6-yl)-6-(trifluoromethyl)picolinamide]
